Experimental data taken from patent US7838512B2, “DNA damaging agents in combination with tyrosine kinase inhibitors” (Arch Development Corporation, priority 1994, dated 2010).

Key:
tumor [1] = conditions: alone, in vivo; cited from earlier work
pancreatic cancer cell = conditions: in vitro; cited from earlier work
p56/p53^lyn [2] = assay: Anti-Lyn immune complex kinase assay from irradiated (200 cGy) or H2O2-treated HL-60 cells; type: cell-based, human; conditions: for effect on X-ray-induced p56/p53^lyn activity: HL-60 cells, 200 cGy, harvested at 12 hours
Experimental: HL-60 myeloid leukemia cells were grown in RPMI-1640 medium containing 15% heat-inactivated fetal bovine serum (FBS) supplemented with 100 units/ml penicillin, […], 2 mM L-glutamine, 1 mM sodium pyruvate and 1 mM non-essential amino acids. Cells in logarithmic growth phase were suspended in complete RPMI-1640 medium with 0.5% FBS 18 hours prior to irradiation.
Irradiation was performed at room temperature using a Gammacell 1000 (Atomic Energy of Canada, Ottawa) under aerobic conditions with a ^137Cs source emitting at a fixed dose rate of 13.3 Gy/min as determined by dosimetry.
Cells (2−3×10^7) were washed twice with ice cold phosphate buffered saline (PBS) and lysed in 2 ml of lysis buffer (20 mM Tris, pH 7.4, 150 mM NaCl, 1% NP-40, 1 mM sodium vanadate, 1 mM phenylmethylsulfonyl fluoride, 1 mM DTT, and […] of leupeptin and aprotinin). After incubation on ice for 30 min, insoluble material was removed by centrifugation at 1400 rpm for 10 min at 4° C. Soluble proteins were precleared by incubation with 5 mg/ml rabbit anti-mouse IgG for 1 hour at 4° C. and then addition of protein A sepharose for 30 min.
The supernatants were incubated with 2.5 μl of anti-human Fyn, 2 μl of anti-human Lyn, 3 μl of anti-human Lyk (N-terminal) or 3 μl of anti-Src antibody (UBI, Lake Placid, N.Y.) for 1 hour at 4° C. followed by 30 min with protein A-sepharose. The immune complexes were washed three times with lysis buffer, once with kinase buffer (20 mM HEPES, pH 7.0, 10 mM MnCl2 and 10 mM MgCl2) and resuspended in 30 μl of kinase buffer containing 1 mCi/ml [γ-^32P]ATP (3000 Ci/mmol; NEN, Boston, Mass.). The reaction was incubated for 10 min at 30° C. and terminated by the addition of 2× SDS sample buffer. The proteins were resolved in 10% SDS-polyacrylamide gels, dried and analyzed by autoradiography.
Immune complexes as prepared for autophosphorylation assays were washed three times with lysis buffer and once with kinase buffer. The beads were resuspended in 30 μl of kinase buffer containing 1 mCi/ml [γ-^32p]ATP and 3-5 mg of acid treated enolase (Sigma). The reaction was incubated for 10 min at 30° C. and terminated by the addition of 2× SDS sample buffer. The proteins were resolved by 10% SDS-PAGE. Equal loading of the enolase was determined by staining with Coomassie blue. The gels were then destained and analyzed by autoradiography. Radioactive bands were also excised from the gel and -quantitated by scintillation counting.

protein-tyrosine kinase = conditions: compared with erbstatin; cited from earlier work
p56/p53^lyn [3] = assay: Immunoblot of anti-Lyn immunoprecipitates (anti-Lyn, anti-P-Tyr); type: cell-based, human; conditions: HL-60 cells, MMC 1 h versus control
Experimental: (§1) Immunoblot analysis. Immune complexes bound to protein A-sepharose were prepared as for the autophosphorylation assays. Proteins were separated in 10% SDS-polyacrylamide gels and transferred to nitrocellulose paper. The residual binding sites were blocked by incubating the filters in 5% dry milk in PBST (PBS/0.05% Tween-20) for 1 h at room temperature. The blots were subsequently incubated with anti-cdc2 or anti-phosphotyrosine (anti-P-Tyr; MAb 4G10, UBI). After washing twice with PBST, the filters were incubated for 1 h at room temperature with anti-mouse IgG (whole molecule) peroxidase conjugate (Sigma) in 5% milk/PBST. The filters were then washed and the antigen-antibody complexes visualized by the ECL detection system (Amersham, Arlington Heights, Ill.).

p56/p53^lyn and p34^cdc2 = assay: Association of p56/p53^lyn with p34^cdc2 (GST-Lyn binding, coimmunoprecipitation); type: cell-based, human; conditions: HL-60 cells, 10^−5 M MMC, 1 h
Experimental: Coimmunoprecipitation. Immunoprecipitations were performed with anti-p34^cdc2 at 5 mg/ml cell lysate. Immune complexes were collected on protein A-Sepharose beads (Pharmacia), washed three times with lysis buffer and twice with kinase buffer, resuspended in kinase buffer and then incubated for 10 min at 30° C. in the presence of 1 mCi/ml [γ-^32P]ATP. One aliquot of the kinase reaction was subjected to SDS-PAGE and autoradiography. The other aliquot was washed in lysis buffer to remove free ATP and then boiled in 20 mM Tris-HCl, pH 8.0 containing 0.5% SDS and 1 mM DTT to disrupt protein-protein interaction. After dilution to 0.1% SDS, a secondary immunoprecipitation was then performed by adding anti-Lyn antibody and protein A-Sepharose beads. The anti-Lyn immunoprecipitates were then subjected to SDS-PAGE and autoradiography.
Fusion protein binding assays. The plasmid encoding a glutathione S-transferase (GST)-Lyn (amino acids 1 to 243) fusion protein was obtained from T. Pawson, Toronto, Canada and transfected into E. coli DH5a (Pleiman et al., 1993). The fusion protein was induced with IPTG, purified by affinity chromatography using glutathione-Sepharose beads (Pharmacia) and equilibrated in lysis buffer. HL-60 cell lysates were incubated with 50 mg immobilized GST or GST-Lyn for 2 h at 4° C. […]

pp60^c-src = assay: Anti-Src immune complex kinase assay from MMC-treated HL-60 cells; type: cell-based, human; conditions: 10^−5 M MMC, 1 h
p56/p53^lyn [4] = assay: Anti-Lyn immune complex kinase assay (autophosphorylation and enolase phosphorylation) from drug-treated HL-60 cells; type: cell-based, human; conditions: for effect of pretreatment on MMC-stimulated p56/p53^lyn activity: 10^−5 M inhibitor 1 h, then MMC 1 h
p34^cdc2 [5] = assay: Anti-cdc2 immunoprecipitates assayed for phosphorylation of H1 histone; type: cell-based; conditions: MMC-treated cells
p56/p53^lyn [6] = assay: MMC added directly to the kinase reaction of anti-Lyn immune complexes from untreated HL-60 cells; type: biochemical, human; conditions: 10^−5 M MMC added to kinase reaction, 15 min
Experimental: FIG. 4A, FIG. 4B and FIG. 4C. MMC-induced p56/p53^lyn activation is sensitive to tyrosine kinase inhibitors and is not a direct effect. […] Anti-Lyn immunoprecipitates were analyzed for phosphorylation of p56/p53^lyn and enolase. […] Lysates from untreated HL-60 cells were immunoprecipitated with anti-Lyn. […] The reaction was analyzed for phosphorylation of p56/p53^lyn and enolase.
The supernatant fraction was incubated with pre-immune rabbit serum, anti-Fyn, anti-Lyn, anti-Src (UBI, Lake Placid, N.Y.) or anti-cdc2 (sc-54, Santa Cruz Biotechnology, Santa Cruz, Calif.) antibodies for 1 h at 4° C. followed by 30 min after addition of protein A-sepharose. The immune complexes were washed three times with lysis buffer and once with kinase buffer (20 mM HEPES, pH 7.0, 10 mM MnCl2 and 10 mM MgCl2) and resuspended in […] of kinase buffer containing 1 mCi/ml [γ-^32P]ATP (3000 Ci/mmol; NEN, Boston, Mass.) with and without 5-8 mg of acid-treated enolase (Sigma). The reaction was incubated for 15 min at 30° C. and terminated by the addition of 2× SDS sample buffer. The proteins were separated in 10% SDS-polyacrylamide gels and analyzed by autoradiography. Radioactive bands were excised from certain gels and quantitated by scintillation counting.

p56/p53^lyn [7] = assay: p56/p53^lyn activity in U-937 myeloid leukemia cells; type: cell-based
p56/p53^lyn [8] = assay: Phosphorylation of cdc2 peptides by anti-Lyn immune complexes; type: cell-based, human; conditions: HL-60 cells, MMC 1 h
Experimental: Immune complexes were also resuspended in […] kinase buffer containing 1 mCi/ml [γ-^32P]ATP and either 100 mM cdc2 peptide (amino acids 7 to 20; […]; SEQ ID NO:1) or 100 mM mutated cdc2 peptide with Phe-15 substituted for Tyr-15 ([…]; SEQ ID NO:2). The reactions were incubated for 15 min at 30° C. and terminated by spotting on P81 phosphocellulose discs (GIBCO/BRL). The discs were washed twice with 1% phosphoric acid and twice with water before analysis by liquid scintillation counting.

p59^fyn = assay: Anti-Fyn immune complex autophosphorylation assay from MMC-treated HL-60 cells; type: cell-based, human; conditions: 10^−5 M MMC, 1 h
p34^cdc2 [9] = assay: Immunoprecipitation of p34^cdc2 and immunoblotting with anti-P-Tyr / anti-cdc2; type: cell-based, human; conditions: HL-60 cells, MMC 1 h
Experimental: as §1

[10] = tested on: c-jun and EGR-1 gene expression; conditions: irradiated HL-60 cells; cited from earlier work
cancer cell = conditions: in vitro; cited from earlier work
tumor [11] = conditions: nude mice; cited from earlier work
pp110^gag-fes = conditions: cited from earlier work
pp60^v-src = conditions: cited from earlier work
EGF-stimulated receptors = EGF-stimulated receptors (Homo sapiens, UniProt P00533); conditions: intact cells, time and dose dependent; cited from earlier work
Sequence of EGF-stimulated receptors (P00533 25-1210): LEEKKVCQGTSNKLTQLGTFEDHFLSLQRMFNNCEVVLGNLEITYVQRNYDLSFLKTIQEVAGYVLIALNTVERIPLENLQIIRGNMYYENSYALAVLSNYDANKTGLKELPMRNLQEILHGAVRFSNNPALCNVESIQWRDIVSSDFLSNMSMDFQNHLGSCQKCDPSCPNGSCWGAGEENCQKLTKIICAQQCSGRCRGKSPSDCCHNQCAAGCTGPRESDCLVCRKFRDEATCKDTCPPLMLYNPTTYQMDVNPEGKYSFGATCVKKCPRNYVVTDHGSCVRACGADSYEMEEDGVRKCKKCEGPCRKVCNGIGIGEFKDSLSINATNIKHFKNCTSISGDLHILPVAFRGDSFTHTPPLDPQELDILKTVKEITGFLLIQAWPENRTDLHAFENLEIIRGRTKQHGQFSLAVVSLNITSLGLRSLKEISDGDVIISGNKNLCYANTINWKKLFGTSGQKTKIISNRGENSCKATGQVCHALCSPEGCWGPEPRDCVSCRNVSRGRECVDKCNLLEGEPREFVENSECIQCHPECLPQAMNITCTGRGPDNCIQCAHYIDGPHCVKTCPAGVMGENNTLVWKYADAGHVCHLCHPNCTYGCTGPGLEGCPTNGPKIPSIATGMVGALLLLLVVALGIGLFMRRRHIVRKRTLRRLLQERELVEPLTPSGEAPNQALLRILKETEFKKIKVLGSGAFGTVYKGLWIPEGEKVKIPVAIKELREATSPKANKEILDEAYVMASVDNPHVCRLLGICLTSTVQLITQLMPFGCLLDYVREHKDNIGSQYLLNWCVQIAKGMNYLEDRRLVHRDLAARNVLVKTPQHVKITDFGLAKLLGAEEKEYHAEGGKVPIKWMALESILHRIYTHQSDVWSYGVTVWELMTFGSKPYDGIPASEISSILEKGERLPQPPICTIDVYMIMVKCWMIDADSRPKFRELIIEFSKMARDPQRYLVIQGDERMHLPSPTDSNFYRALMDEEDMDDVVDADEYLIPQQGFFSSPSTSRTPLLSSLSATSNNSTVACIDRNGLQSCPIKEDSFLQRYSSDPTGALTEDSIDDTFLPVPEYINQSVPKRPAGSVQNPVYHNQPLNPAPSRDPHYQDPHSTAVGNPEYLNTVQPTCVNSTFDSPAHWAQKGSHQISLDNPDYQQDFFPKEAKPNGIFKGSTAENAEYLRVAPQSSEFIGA

## O=C1NC(=O)c2cc(Nc3ccccc3)c(Nc3ccccc3)cc21 [4,5-Dianilinophthalimide]
Tumor [1]
  antitumor activity: in vivo antitumor activity

## CC(C)(C)c1cc(C=C(C#N)C#N)cc(C(C)(C)C)c1O [AG17]
Pancreatic cancer cell
  pancreatic cancer cell growth: inhibit pancreatic cancer cell growth

## N#CC(C#N)=Cc1ccc(O)c(O)c1 [AG18]
Pancreatic cancer cell
  pancreatic cancer cell growth: inhibit pancreatic cancer cell growth

## OO [H2O2]
p56/p53^lyn [2]; HL-60 cells treated with 50 mM H2O2
  phosphorylation of p56/p53^lyn or enolase: did not show a detectable increase

## O=C(O)c1cc(N(Cc2ccccc2O)Cc2cc(O)ccc2O)ccc1O [Lavendustin A]
protein-tyrosine kinase
  inhibitory potency relative to erbstatin: about 50 times

## CO[C@@]12[C@H](COC(N)=O)C3=C(C(=O)C(C)=C(N)C3=O)N1C[C@@H]1N[C@@H]12 [MMC, Mitomycin C]
p56/p53^lyn [3]
  tyrosine phosphorylation of p56/p53^lyn (anti-P-Tyr immunoblot): increase in tyrosine phosphorylation
p56/p53^lyn and p34^cdc2
  interaction between p56/p53^lyn and p34^cdc2: induces an interaction
pp60^c-src
  pp60^c-src activity: decrease
p56/p53^lyn [4]; 10^−5 M MMC, 30 min
  increase in enolase phosphorylation: 4.2 fold
p56/p53^lyn [4]; 10^−5 M MMC, 1 h
  p56/p53^lyn activity (autophosphorylation of anti-Lyn immunoprecipitates): increase
p56/p53^lyn [4]; 10^−5 M MMC, 12 h
  increase in enolase phosphorylation: 4.1 fold
p56/p53^lyn [4]; 10^−6 and 10^−5 M MMC, 1 h
  p56/p53^lyn activity (phosphorylation of p56/p53^lyn and enolase): more pronounced stimulation
p56/p53^lyn [4]; 10^−8 and 10^−7 M MMC, 1 h
  p56/p53^lyn activity (phosphorylation of p56/p53^lyn and enolase): Increases
p34^cdc2 [5]
  p34^cdc2 kinase activity (H1 histone phosphorylation): loss of kinase activity
p56/p53^lyn [6]
  kinase activity of anti-Lyn immune complexes incubated with MMC: decrease in kinase activity
p56/p53^lyn [7]
  p56/p53^lyn activity: increases in p56/p53^lyn activity
p56/p53^lyn [8]
  phosphorylation of mutated cdc2 peptide (Tyr-15 to Phe-15) by anti-Lyn complexes: little phosphorylation
p56/p53^lyn [8]; versus control cells, cdc2 peptide amino acids 7 to 20
  stimulation of cdc2 peptide phosphorylation by anti-Lyn immune complexes: ~2 fold
p59^fyn
  autophosphorylation of p59^fyn: decreased
p34^cdc2 [9]
  tyrosine phosphorylation of p34^cdc2 (anti-P-Tyr reactivity of anti-cdc2 precipitates): increase in reactivity

## CC(=O)N[C@@H](CS)C(=O)O [NAC, N-acetyl cysteine]
[10]
  effect on induction of c-jun and EGR-1 gene expression: completely blocks
p56/p53^lyn [2]; 30 mM NAC 1 hour
  effect on X-ray-induced p56/p53^lyn activity: little effect

## COc1ccc(/C=C(\C#N)c2cccnc2)cc1OC [RG-13022]
Cancer cell
  cancer cell proliferation: suppress
Tumor [11]
  tumor growth: suppress

## N#C/C(=C\c1cc(Cl)cc(Cl)c1)c1cccnc1 [RG-14620, (Z)-alpha-[(3,5-dichlorophenyl)methylene]-3-pyridylacetonitrile]
Cancer cell
  cancer cell proliferation: suppress
Tumor [11]
  tumor growth: suppress

## N#C/C(=C\c1ccc(O)c(O)c1)C(N)=S [T47]
Pancreatic cancer cell
  pancreatic cancer cell growth: inhibit pancreatic cancer cell growth

## Cc1c[nH]c2c1[C@@]13C[C@@H]1CN(C(=O)c1cc4cc(NC(=O)c5cc6ccccc6o5)ccc4[nH]1)C3=CC2=O [adozelesin]
p56/p53^lyn [4]; 2×10^−6 M, 1 h
  p56/p53^lyn and enolase phosphorylation: stimulation of p56/p53^lyn and enolase phosphorylation

## N.N.[Cl][Pt][Cl] [cis-platinum]
p56/p53^lyn [4]; 10^−5 M, 1 h
  p56/p53^lyn kinase activity (phosphorylation of p56/p53^lyn and enolase): stimulation of the p56/p53^lyn kinase

## O=c1c(-c2ccc(O)cc2)coc2cc(O)cc(O)c12 [genistein]
pp110^gag-fes
  inhibitory activity against pp110^gag-fes: specific inhibitory activity
p56/p53^lyn [4]
  effect of pretreatment on MMC-stimulated p56/p53^lyn activity: completely blocks
pp60^v-src
  inhibitory activity against pp60^v-src: specific inhibitory activity
p56/p53^lyn [2]; 10 μM inhibitor 1 hour
  effect on X-ray-induced p56/p53^lyn activity: inhibited

## CO[C@H]1[C@@H](OC)C[C@H](C)[C@@H](OC)C2=CC(=O)C=C(NC(=O)/C(C)=C/C=C\[C@H](OC)[C@@H](OC(N)=O)/C(C)=C/[C@@H]1C)C2=O [herbimycin A]
p56/p53^lyn [4]
  effect of pretreatment on MMC-stimulated p56/p53^lyn activity: completely blocks
EGF-stimulated receptors
  autophosphorylation of EGF-stimulated receptors: inhibit the autophosphorylation
p56/p53^lyn [2]; 10 μM inhibitor 1 hour
  effect on X-ray-induced p56/p53^lyn activity: inhibited
